The conditions of series [1]: at birth; in utero exposure; cited from earlier work.
In series [2] the test system is mice. Briefly: Novelty-suppressed feeding (NSF) test, measurement of anxiety. As to conditions: FIGS. 3A-3D. In kind it is in vivo, mouse. As to the method:
FIGS. 3A-3D are a series of bar graphs showing results from the novelty-suppressed feeding (NSF) test, a measurement of anxiety. Maternal dams were administered either water (control), Fluoxetine (SSRI), or both Fluoxetine and Piboserod (SSRI+Pibo) from E1 through weaning from breastfeeding. Pups were thus exposed to aforementioned medications during gestation and breastfeeding. Once pups were weaned, at P21, they were not given any medications. The pups were evaluated at 6-8 weeks of age to rule out acute drug effects. The NSF test began with a short term food restriction of 18 hours (water was still available). After the test, mice were given food ad libitum again. The NSF test is a “conflict” test, which assesses the competing motivations of the animal to explore (forage) for food versus remain in the safety of the periphery of the arena. Mice were placed into a white box with shavings on the floor and two food pellets placed on a circle of filter paper in the center of the arena. The latency to chew the food is the measure of anxiety. Measured times included time to reach the filter paper with the food pellet on it (“time to filter”), time to touch/smell the pellet (“time to pellet”), time to bite the pellet (“time to bite”) and time to sit and eat the pellet (“time to sit and eat”). […]

For series [3], the system named is mice. Briefly: Sucrose preference test, measurement of depression. In kind it is in vivo, mouse. The following applies: FIG. 4. How it is done:
FIG. 4 is a bar graph showing results from the sucrose preference test, a measurement of depression in mice. Maternal dams were administered either water (control), Fluoxetine (SSRI), or both Fluoxetine and Piboserod (SSRI+Pibo) from E1 through weaning from breastfeeding. Pups were thus exposed to aforementioned medications during gestation and breastfeeding. Once pups were weaned, at P21, they were not given any medications. The pups were evaluated at 6-8 weeks of age to rule out acute drug effects. For the sucrose preference test, mice were trained for 2 days to drink diluted sucrose and water from serological pipettes with sippers attached and testing was done on day 3. The volumes of sucrose and water consumed overnight were recorded. A reduced preference for sucrose solution over plain water represents anhedonia.
(§1) In the present invention, the serotonin-4 receptor (5-HT4R) has been identified as a critical player in SERT modulation, ENS and CNS development and GI function. […] (FIGS. 1-2). […] Administration of a 5-HT4R antagonist during neurodevelopment thus corrects the long-lasting gastrointestinal motility and behavioral defects caused by developmental exposure to SSRls.

Series [4] has as its system mice. Briefly: Total intestinal transit time (Rhodamine B bolus) in pups exposed during gestation and breastfeeding. In kind it is in vivo. As to conditions: Piboserod given to mouse mothers during pregnancy and breastfeeding concomitantly with Fluoxetine; pups evaluated at 6-8 weeks; FIG. 1. How it is done:
FIG. 1 is a bar graph showing total intestinal transit time (expressed as percentage of control). Maternal dams were administered either water (control), Fluoxetine (SSRI), or both Fluoxetine and Piboserod (SSRI+Pibo) from embryonic day 1 (E1) through weaning from breastfeeding. Pups were thus exposed to aforementioned medications during gestation and breastfeeding. Once pups were weaned, at postnatal day 21 (P21), they were not given any medications. Pups were then evaluated at 6-8 weeks of age to rule out acute drug effects. Total intestinal transit time was measured by administering a bolus of Rhodamine B (time 0) and calculating the amount of time until the rhodamine was found in the stool.
as §1

Series [5] relates to mice. Briefly: Colonic transit time (glass bead expulsion) in pups exposed during gestation and breastfeeding. It is filed as in vivo. As to conditions: Piboserod given to mouse mothers during pregnancy and breastfeeding concomitantly with Fluoxetine; pups evaluated at 6-8 weeks; FIG. 2. How it is done:
FIG. 2 is a bar graph showing colonic transit time (expressed as percentage of control). Maternal dams were administered either water (control), Fluoxetine (SSRI), or both Fluoxetine and Piboserod (SSRI+Pibo) from E1 through weaning from breastfeeding. Pups were thus exposed to aforementioned medications during gestation and breastfeeding. Once pups were weaned, at P21, they were not given any medications. Pups were evaluated at 6-8 weeks of age to rule out acute drug effects. Colonic transit time was measured by inserting a 2 mm glass bead 4 cm into the rectum and calculating the time it took for bead expulsion to occur.
as §1

Where [6] appears, read: mice exposed to Fluoxetine in utero and during breastfeeding, evaluated at 6-8 weeks.
Setting [7] is: mice exposed to Piboserod and Fluoxetine concomitantly in utero and during breastfeeding.

As for `CNCCC(Oc1ccc(C(F)(F)F)cc1)c1ccccc1` (stereo not shown) [Fluoxetine], in series [1], the “plasma Fluoxetine levels in newborns, of maternal levels” value is recorded as “approximately 70%”. Moreover, the “levels of anxiety (novelty-suppressed feeding)” value in the series on mice [2] (setting [6]) is listed as “increased levels”. Moreover, the “levels of depression (sucrose preference test)” value in the series with mice [3] (setting [6]) was “increased levels”.
Take `CCCCN1CCC(CNC(=O)c2c3n(c4ccccc24)CCCO3)CC1` [Piboserod]: the total intestinal transit result in the series on mice [4] is listed as “comparable with control mice”. In the series on mice [2] (setting [7]), the “anxiety behavior (novelty-suppressed feeding)” value is reported as “behaviorally comparable to control mice”. Further, the colonic motility entry in the series on mice [5] is on record as “comparable with control mice”. Besides, the “depression behavior (sucrose preference test)” value in the series with mice [3] (setting [7]) is “behaviorally comparable to control mice”.
